Results as given in the NIST ThermoML archive (doi:10.1016/j.tca.2016.06.023).

What was measured:
[1] = xn = mol fraction of the nth substance listed; details: 81.5 kPa, Liquid, Vibrating tube method
[2] = refractive index (Na D-line) (dimensionless); xn = mol fraction of the nth substance listed; details: 81.5 kPa, Liquid, Standard Abbe refractometry

Brc1ccccc1 [bromobenzene] + O=[N+]([O-])c1ccccc1
Details | mass density, 293.15 K [kg/m3] | mass density, 303.15 K [kg/m3] | mass density, 313.15 K [kg/m3] | mass density, 323.15 K [kg/m3] | mass density, 333.15 K [kg/m3] | refractive index, 293.15 K | refractive index, 303.15 K | refractive index, 313.15 K | refractive index, 323.15 K | refractive index, 333.15 K
[1], x1 = 0.0998 | 1232.31 | 1221.95 | 1211.59 | 1201.25 | 1190.87 | – | – | – | – | –
[1], x1 = 0.2013 | 1262.07 | 1251.35 | 1240.6 | 1229.85 | 1219.06 | – | – | – | – | –
[1], x1 = 0.2985 | 1290.56 | 1279.49 | 1268.39 | 1257.29 | 1246.12 | – | – | – | – | –
[1], x1 = 0.3968 | 1319.31 | 1307.88 | 1296.44 | 1284.95 | 1273.45 | – | – | – | – | –
[1], x1 = 0.505 | 1350.9 | 1339.07 | 1327.25 | 1315.36 | 1303.45 | – | – | – | – | –
[1], x1 = 0.5974 | 1377.81 | 1365.65 | 1353.48 | 1341.27 | 1329.01 | – | – | – | – | –
[1], x1 = 0.6987 | 1407.3 | 1394.76 | 1382.18 | 1369.62 | 1357.01 | – | – | – | – | –
[1], x1 = 0.8018 | 1437.33 | 1424.41 | 1411.45 | 1398.53 | 1385.53 | – | – | – | – | –
[1], x1 = 0.8963 | 1464.97 | 1451.69 | 1438.42 | 1425.19 | 1411.84 | – | – | – | – | –
[1], x1 = 1 | 1495.52 | 1481.97 | 1468.41 | 1454.85 | 1441.22 | – | – | – | – | –
[2], x1 = 0.0998 | – | – | – | – | – | 1.55317 | 1.54834 | 1.54352 | 1.53852 | 1.53345
[2], x1 = 0.2013 | – | – | – | – | – | 1.55394 | 1.54905 | 1.54416 | 1.53909 | 1.534
[2], x1 = 0.2985 | – | – | – | – | – | 1.55468 | 1.54973 | 1.54477 | 1.53962 | 1.53452
[2], x1 = 0.3968 | – | – | – | – | – | 1.55542 | 1.55041 | 1.54538 | 1.54015 | 1.53503
[2], x1 = 0.505 | – | – | – | – | – | 1.55622 | 1.55115 | 1.54603 | 1.54072 | 1.53559
[2], x1 = 0.5974 | – | – | – | – | – | 1.5569 | 1.55177 | 1.54658 | 1.5412 | 1.53605
[2], x1 = 0.6987 | – | – | – | – | – | 1.55764 | 1.55245 | 1.54718 | 1.54171 | 1.53654
[2], x1 = 0.8018 | – | – | – | – | – | 1.55838 | 1.55313 | 1.54777 | 1.54223 | 1.53704
[2], x1 = 0.8963 | – | – | – | – | – | 1.55906 | 1.55375 | 1.54831 | 1.54269 | 1.53748
[2], x1 = 1 | – | – | – | – | – | 1.55981 | 1.55442 | 1.5489 | 1.54319 | 1.53742

Brc1ccccc1 [bromobenzene] + Clc1ccccc1
Details | mass density, [1] [kg/m3] | refractive index, [2]
293.15 K, x2 = 0 | 1495.52 | 1.55981
293.15 K, x2 = 0.1004 | 1457.81 | 1.55614
293.15 K, x2 = 0.2188 | 1413.03 | 1.55183
293.15 K, x2 = 0.3025 | 1381.12 | 1.54881
293.15 K, x2 = 0.4005 | 1343.53 | 1.54531
293.15 K, x2 = 0.5003 | 1304.91 | 1.54178
293.15 K, x2 = 0.6014 | 1265.46 | 1.53824
293.15 K, x2 = 0.6985 | 1227.24 | 1.53488
293.15 K, x2 = 0.7976 | 1187.96 | 1.53149
293.15 K, x2 = 0.899 | 1147.37 | 1.52802
303.15 K, x2 = 0 | 1481.97 | 1.55442
303.15 K, x2 = 0.1004 | 1444.57 | 1.55075
303.15 K, x2 = 0.2188 | 1400.11 | 1.54645
303.15 K, x2 = 0.3025 | 1368.44 | 1.54341
303.15 K, x2 = 0.4004 | 1331.07 | 1.5399
303.15 K, x2 = 0.5002 | 1292.73 | 1.53635
303.15 K, x2 = 0.6014 | 1253.57 | 1.5328
303.15 K, x2 = 0.6985 | 1215.65 | 1.52943
303.15 K, x2 = 0.7975 | 1176.65 | 1.52602
303.15 K, x2 = 0.8989 | 1136.37 | 1.52252
313.15 K, x2 = 0 | 1468.41 | 1.5489
313.15 K, x2 = 0.1004 | 1431.29 | 1.54525
313.15 K, x2 = 0.2188 | 1387.2 | 1.54094
313.15 K, x2 = 0.3025 | 1355.72 | 1.53791
313.15 K, x2 = 0.4004 | 1318.65 | 1.53439
313.15 K, x2 = 0.5002 | 1280.55 | 1.53084
313.15 K, x2 = 0.6014 | 1241.67 | 1.52729
313.15 K, x2 = 0.6985 | 1204.01 | 1.52391
313.15 K, x2 = 0.7975 | 1165.32 | 1.52049
313.15 K, x2 = 0.8989 | 1125.28 | 1.51697
323.15 K, x2 = 0 | 1454.85 | 1.54319
323.15 K, x2 = 0.1004 | 1418.03 | 1.53956
323.15 K, x2 = 0.2188 | 1374.22 | 1.53528
323.15 K, x2 = 0.3025 | 1342.96 | 1.53225
323.15 K, x2 = 0.4004 | 1306.14 | 1.52874
323.15 K, x2 = 0.5002 | 1268.32 | 1.5252
323.15 K, x2 = 0.6014 | 1229.71 | 1.52165
323.15 K, x2 = 0.6985 | 1192.33 | 1.51827
323.15 K, x2 = 0.7975 | 1153.89 | 1.51484
323.15 K, x2 = 0.8989 | 1114.13 | 1.51133
333.15 K, x2 = 0 | 1441.22 | 1.53742
333.15 K, x2 = 0.1004 | 1404.71 | 1.53383
333.15 K, x2 = 0.2188 | 1361.19 | 1.52957
333.15 K, x2 = 0.3025 | 1330.15 | 1.52657
333.15 K, x2 = 0.4004 | 1293.58 | 1.52308
333.15 K, x2 = 0.5002 | 1256.04 | 1.51956
333.15 K, x2 = 0.6014 | 1217.71 | 1.51602
333.15 K, x2 = 0.6985 | 1180.59 | 1.51266
333.15 K, x2 = 0.7975 | 1142.42 | 1.50924
333.15 K, x2 = 0.8989 | 1102.93 | 1.50574

Clc1ccccc1 [chlorobenzene] + O=[N+]([O-])c1ccccc1
Details | mass density, 293.15 K [kg/m3] | mass density, 303.15 K [kg/m3] | mass density, 313.15 K [kg/m3] | mass density, 323.15 K [kg/m3] | mass density, 333.15 K [kg/m3] | refractive index, 293.15 K | refractive index, 303.15 K | refractive index, 313.15 K | refractive index, 323.15 K | refractive index, 333.15 K
[1], x1 = 0.1792 | 1186.15 | 1176.1 | 1166.03 | 1155.95 | 1145.83 | – | – | – | – | –
[1], x1 = 0.2018 | 1184.02 | 1173.95 | 1163.86 | 1153.76 | 1143.62 | – | – | – | – | –
[1], x1 = 0.2994 | 1174.79 | 1164.64 | 1154.47 | 1144.27 | 1134.02 | – | – | – | – | –
[1], x1 = 0.3967 | 1165.55 | 1155.32 | 1145.05 | 1134.75 | 1124.4 | – | – | – | – | –
[1], x1 = 0.491 | 1156.55 | 1146.24 | 1135.88 | 1125.49 | 1115.04 | – | – | – | – | –
[1], x1 = 0.5425 | 1151.59 | 1141.23 | 1130.83 | 1120.39 | 1109.89 | – | – | – | – | –
[1], x1 = 0.6479 | 1141.41 | 1130.96 | 1120.45 | 1109.9 | 1099.31 | – | – | – | – | –
[1], x1 = 0.7553 | 1130.91 | 1120.36 | 1109.75 | 1099.09 | 1088.41 | – | – | – | – | –
[1], x1 = 0.8748 | 1119.07 | 1108.4 | 1097.7 | 1086.93 | 1076.14 | – | – | – | – | –
[1], x1 = 1 | 1106.49 | 1095.71 | 1084.86 | 1073.96 | 1063.01 | – | – | – | – | –
[2], x1 = 0.1792 | – | – | – | – | – | 1.54704 | 1.54217 | 1.53739 | 1.53251 | 1.52761
[2], x1 = 0.2018 | – | – | – | – | – | 1.54638 | 1.5415 | 1.53671 | 1.53184 | 1.52695
[2], x1 = 0.2994 | – | – | – | – | – | 1.54356 | 1.53864 | 1.53383 | 1.52896 | 1.52412
[2], x1 = 0.3967 | – | – | – | – | – | 1.54078 | 1.53584 | 1.531 | 1.52612 | 1.52129
[2], x1 = 0.491 | – | – | – | – | – | 1.53813 | 1.53317 | 1.52829 | 1.52338 | 1.51851
[2], x1 = 0.5425 | – | – | – | – | – | 1.5367 | 1.53172 | 1.52682 | 1.52186 | 1.51697
[2], x1 = 0.6479 | – | – | – | – | – | 1.53381 | 1.52879 | 1.52381 | 1.51876 | 1.51377
[2], x1 = 0.7553 | – | – | – | – | – | 1.53092 | 1.52581 | 1.52072 | 1.51554 | 1.5104
[2], x1 = 0.8748 | – | – | – | – | – | 1.52777 | 1.52252 | 1.51723 | 1.51185 | 1.50652
[2], x1 = 1 | – | – | – | – | – | 1.52455 | 1.51902 | 1.51346 | 1.50781 | 1.50223
